Data on one molecule can be found in ChEMBL document CHEMBL4428063, “Novel Pyrimidine Toll-like Receptor 7 and 8 Dual Agonists to Treat Hepatitis B Virus” (J Med Chem, 2016).

Activity calls are given as the source filed them. The rule behind the calls is not given here.

A short description of series [1]: Intrinsic clearance in Sprague-Dawley rat hepatocytes at 1 uM measured after 120 mins. In kind it is ADME, cell-based, Hepatocyte. The following applies: 2 h.
Series [2] can be described thus: Intrinsic clearance in cynomolgus monkey hepatocytes at 1 uM measured after 120 mins. In kind it is ADME, cell-based, Macaca fascicularis, Hepatocyte. The following applies: 2 h.
In the next series the test system is HepG2. The series can be described thus: Cytotoxicity against human HepG2 cells measured after 72 hrs by multiplex end point analysis. Type of series: cell-based. The following applies: hepg2, 72 h.
Series [3] is described as follows: Ratio of drug level in Sprague-Dawley rat liver to plasma at 10 mg/kg, po. In kind it is ADME, organism-based. To be noted: liver and plasma.
In series [4] the target is Toll-like receptor 5 (Homo sapiens) (UniProt O60602). Briefly: Agonist activity at wild-type human TLR5 expressed in HEK293 cells up to 25 uM measured after 6 hrs by NF-kappaB luciferase reporter gene assay. In kind it is cell-based. For orientation: In a reporter assay the amount or activity of a reporter protein is the signal.
Sequence of Toll-like receptor 5 (Homo sapiens) (O60602 whole entry): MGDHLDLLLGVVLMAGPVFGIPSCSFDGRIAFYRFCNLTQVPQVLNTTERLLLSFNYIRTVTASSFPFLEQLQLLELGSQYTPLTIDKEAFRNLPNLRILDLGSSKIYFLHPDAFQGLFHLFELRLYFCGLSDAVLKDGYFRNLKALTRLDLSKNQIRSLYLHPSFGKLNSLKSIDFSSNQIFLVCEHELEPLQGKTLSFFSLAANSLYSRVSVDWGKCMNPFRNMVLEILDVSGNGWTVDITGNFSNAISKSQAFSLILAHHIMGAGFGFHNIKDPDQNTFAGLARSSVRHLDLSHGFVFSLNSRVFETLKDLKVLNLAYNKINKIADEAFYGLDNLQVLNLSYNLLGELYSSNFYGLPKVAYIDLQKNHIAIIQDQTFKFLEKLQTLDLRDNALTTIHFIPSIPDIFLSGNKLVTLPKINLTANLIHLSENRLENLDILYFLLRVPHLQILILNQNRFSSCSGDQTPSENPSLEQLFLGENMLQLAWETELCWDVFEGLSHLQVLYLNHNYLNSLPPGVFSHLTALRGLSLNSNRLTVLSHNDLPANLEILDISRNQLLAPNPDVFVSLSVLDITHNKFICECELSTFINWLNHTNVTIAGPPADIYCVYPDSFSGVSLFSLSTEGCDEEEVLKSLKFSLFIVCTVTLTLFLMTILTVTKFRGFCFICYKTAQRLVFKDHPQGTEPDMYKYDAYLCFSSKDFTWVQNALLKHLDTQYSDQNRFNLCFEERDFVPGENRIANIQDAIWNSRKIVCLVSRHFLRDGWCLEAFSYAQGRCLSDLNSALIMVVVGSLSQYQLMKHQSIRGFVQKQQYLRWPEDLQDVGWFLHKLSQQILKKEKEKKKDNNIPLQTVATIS
Series [5] is described as follows: Intrinsic clearance in C57Bl/6 mouse hepatocytes at 1 uM measured after 120 mins. In kind it is ADME, cell-based, Hepatocyte. The following applies: 2 h.
The nature of series [6]: Tmax in cynomolgus monkey plasma at 3 mg/kg, administered through oral gavage measured after 24 hrs. Type of series: ADME, organism-based, Macaca fascicularis.
Series [7] has as its target Toll-like receptor 2 (Homo sapiens) (UniProt O60603). Briefly: Agonist activity at wild-type human TLR2 expressed in HEK293 cells up to 25 uM measured after 6 hrs by NF-kappaB luciferase reporter gene assay. Type of series: cell-based.
Series [8] in a line: Cmax in cynomolgus monkey plasma at 30 mg/kg, administered through oral gavage measured after 24 hrs. Type of series: ADME, organism-based, Macaca fascicularis. More on the design: dose 30 mg/kg, route oral.
Series [9] in a line: AUC(0 to last) in cynomolgus monkey plasma at 30 mg/kg, administered through oral gavage measured after 24 hrs. In kind it is ADME, organism-based, Macaca fascicularis. Further details: dose 30 mg/kg, time 0 - last, route oral.
Series [10] can be described thus: Tmax in Sprague-Dawley rat liver at 10 mg/kg, po. Type of series: ADME, organism-based.
The nature of series [11]: Oral bioavailability in cynomolgus monkey at 30 mg/kg, measured after 24 hrs. The following applies: in vivo. Type of series: ADME, organism-based, Macaca fascicularis.
Series [12] has as its target Toll-like receptor 4 (Homo sapiens) (UniProt O00206). Briefly: Agonist activity at wild-type human TLR4 expressed in HEK293 cells up to 25 uM measured after 6 hrs by NF-kappaB luciferase reporter gene assay. In kind it is cell-based.
Series [13] concerns the target T1, Toll-like receptor 8 (Homo sapiens) (UniProt Q9NR97).
T1 sequence (whole entry): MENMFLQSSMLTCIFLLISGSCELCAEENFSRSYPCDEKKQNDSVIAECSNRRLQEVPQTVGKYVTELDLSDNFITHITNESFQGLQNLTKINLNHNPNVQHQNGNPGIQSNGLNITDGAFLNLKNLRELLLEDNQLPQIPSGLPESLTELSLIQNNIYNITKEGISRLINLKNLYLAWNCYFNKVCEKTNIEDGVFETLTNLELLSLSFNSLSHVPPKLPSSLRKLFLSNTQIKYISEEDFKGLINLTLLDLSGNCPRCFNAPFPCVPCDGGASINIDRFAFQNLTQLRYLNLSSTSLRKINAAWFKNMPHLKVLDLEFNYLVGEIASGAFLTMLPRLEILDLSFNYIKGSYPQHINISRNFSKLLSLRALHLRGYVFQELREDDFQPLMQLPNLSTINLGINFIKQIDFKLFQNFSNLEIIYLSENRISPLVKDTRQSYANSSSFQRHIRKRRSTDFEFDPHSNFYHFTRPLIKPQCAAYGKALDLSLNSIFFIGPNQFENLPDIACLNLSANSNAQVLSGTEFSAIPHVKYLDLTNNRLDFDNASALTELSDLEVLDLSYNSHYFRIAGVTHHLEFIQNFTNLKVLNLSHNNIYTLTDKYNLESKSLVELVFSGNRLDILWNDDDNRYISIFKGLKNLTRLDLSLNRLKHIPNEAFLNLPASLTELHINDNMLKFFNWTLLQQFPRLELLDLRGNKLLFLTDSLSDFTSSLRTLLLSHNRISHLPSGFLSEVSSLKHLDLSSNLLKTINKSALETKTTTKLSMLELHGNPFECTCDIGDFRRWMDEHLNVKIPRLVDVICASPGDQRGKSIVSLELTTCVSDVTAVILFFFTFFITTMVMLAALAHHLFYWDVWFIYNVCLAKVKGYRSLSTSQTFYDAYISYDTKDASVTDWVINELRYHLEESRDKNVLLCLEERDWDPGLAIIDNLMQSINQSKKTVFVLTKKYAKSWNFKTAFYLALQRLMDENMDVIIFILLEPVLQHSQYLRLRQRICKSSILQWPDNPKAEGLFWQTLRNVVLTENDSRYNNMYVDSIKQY
The series can be described thus: Agonist activity at human TLR8 expressed in HEK293 cells assessed as measured after 6 hrs by NF-kappaB luciferase reporter gene assay. Type of series: cell-based.

Series [14] can be described thus: Oral bioavailability in cynomolgus monkey at 9 mg/kg, measured after 24 hrs. Type of series: ADME, organism-based, Macaca fascicularis. To be noted: in vivo.
The nature of series [15]: Solubility of the compound. Type of series: physicochemical.
Series [16] is described as follows: Intrinsic clearance in Sprague-Dawley rat liver microsomes assessed per mg protein at 1 uM measured after 60 mins. In kind it is ADME, Microsome. The following applies: read-out: CLH. On the technique in general: Liver microsomes are a subcellular fraction often used to study metabolism.
Series [17] in a line: Cmax in Sprague-Dawley rat liver at 10 mg/kg, po. In kind it is ADME, organism-based. More on the design: dose 10 mg/kg, route oral.
Series [18] is described as follows: Cmax in cynomolgus monkey plasma at 3 mg/kg, administered through oral gavage measured after 24 hrs. Type of series: ADME, organism-based, Macaca fascicularis. More on the design: dose 3 mg/kg, route oral.
Series [19] can be described thus: Intrinsic clearance in human liver microsomes assessed per mg protein at 1 uM measured after 60 mins. The following applies: read-out: CLH. Type of series: ADME, Microsome.
Series [20] in a line: Tmax in C57Bl/6 mouse at 1 to 50 mg/kg, po. Type of series: ADME, organism-based. To be noted: in vivo.
A short description of series [21]: AUC(0 to last) in cynomolgus monkey plasma at 3 mg/kg, administered through oral gavage measured after 24 hrs. In kind it is ADME, organism-based, Macaca fascicularis. More on the design: dose 3 mg/kg, time 0 - last, route oral.

Sequence of Toll-like receptor 2 (Homo sapiens) (O60603 whole entry): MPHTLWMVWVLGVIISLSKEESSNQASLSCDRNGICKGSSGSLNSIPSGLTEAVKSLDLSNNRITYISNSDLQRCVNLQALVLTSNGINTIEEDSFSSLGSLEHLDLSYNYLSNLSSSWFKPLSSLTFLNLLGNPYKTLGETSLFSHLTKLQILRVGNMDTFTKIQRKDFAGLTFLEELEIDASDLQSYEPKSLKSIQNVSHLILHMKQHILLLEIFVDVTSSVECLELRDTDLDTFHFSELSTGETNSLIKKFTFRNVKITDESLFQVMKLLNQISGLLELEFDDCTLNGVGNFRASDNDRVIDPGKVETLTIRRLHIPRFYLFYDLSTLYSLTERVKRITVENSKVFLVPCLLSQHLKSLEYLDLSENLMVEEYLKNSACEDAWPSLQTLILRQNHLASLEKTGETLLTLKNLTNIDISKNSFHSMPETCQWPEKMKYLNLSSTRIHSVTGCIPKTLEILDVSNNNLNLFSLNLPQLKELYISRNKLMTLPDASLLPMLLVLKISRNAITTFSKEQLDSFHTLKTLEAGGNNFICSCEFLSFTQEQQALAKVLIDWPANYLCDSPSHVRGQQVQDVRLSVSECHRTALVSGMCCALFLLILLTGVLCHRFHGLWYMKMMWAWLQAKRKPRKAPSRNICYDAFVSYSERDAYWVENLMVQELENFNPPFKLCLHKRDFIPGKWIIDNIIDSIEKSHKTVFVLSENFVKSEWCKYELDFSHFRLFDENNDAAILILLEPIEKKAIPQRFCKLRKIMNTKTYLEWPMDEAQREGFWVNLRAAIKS
Sequence of Toll-like receptor 4 (Homo sapiens) (O00206 whole entry): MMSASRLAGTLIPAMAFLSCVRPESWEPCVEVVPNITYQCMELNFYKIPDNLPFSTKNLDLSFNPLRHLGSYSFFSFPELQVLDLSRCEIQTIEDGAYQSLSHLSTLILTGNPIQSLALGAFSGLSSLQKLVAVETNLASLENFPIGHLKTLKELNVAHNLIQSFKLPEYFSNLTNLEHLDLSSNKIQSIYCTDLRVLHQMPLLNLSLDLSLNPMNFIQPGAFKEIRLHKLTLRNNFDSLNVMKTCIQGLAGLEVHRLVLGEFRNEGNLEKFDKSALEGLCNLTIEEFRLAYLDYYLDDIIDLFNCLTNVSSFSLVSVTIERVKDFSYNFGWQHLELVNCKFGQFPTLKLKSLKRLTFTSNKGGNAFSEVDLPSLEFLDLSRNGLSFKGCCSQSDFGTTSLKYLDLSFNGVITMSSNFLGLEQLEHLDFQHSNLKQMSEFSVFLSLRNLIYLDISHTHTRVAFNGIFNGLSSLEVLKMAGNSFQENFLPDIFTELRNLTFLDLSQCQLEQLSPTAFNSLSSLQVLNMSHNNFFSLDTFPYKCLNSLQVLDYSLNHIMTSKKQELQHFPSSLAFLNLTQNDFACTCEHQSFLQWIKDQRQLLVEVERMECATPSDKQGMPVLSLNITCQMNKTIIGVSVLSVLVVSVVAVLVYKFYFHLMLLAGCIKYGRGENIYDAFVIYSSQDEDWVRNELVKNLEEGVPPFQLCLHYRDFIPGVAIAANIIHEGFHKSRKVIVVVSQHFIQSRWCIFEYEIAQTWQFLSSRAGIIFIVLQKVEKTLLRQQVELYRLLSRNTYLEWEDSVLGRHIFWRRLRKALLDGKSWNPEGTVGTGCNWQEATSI

On to `CCCC[C@@H](CCO)Nc1nc(N)ncc1OC`, for which the CLH in [1] was 68 µL/min; in series [2] it was 103 µL/min; in series [5] it was 20 µL/min. The concentration for an effect of 20% (EC20) (commonly the concentration needed for an effect of 20%) in the series with HepG2 is greater than 86 µM. The Kp (commonly tissue or fluid exposure divided by exposure in the circulation) in [3] is 14. Also, the result in [4], in [7] and in [12] was inactive. Besides, the time of peak concentration (Tmax) – broadly, the time from dosing to the highest level – is 1 h in series [6], 30 min in series [10] and 30 to 60 min in series [20]. Besides, the Cmax (commonly the maximum level reached in the sampled fluid or tissue) in series [8] was 355 ng/mL; in series [17], 1710 ng/g; in series [18], 7 ng/mL. The values for the AUC(0-t) at 24 h in [9] and in series [21] were 583 ng·h/mL and 11 ng·h/mL, respectively. Also, the bioavailability (in general, dose-corrected exposure relative to a reference, in per cent) was 3.9% in [11] and 1.5% in series [14]. In addition, the LED in series [13] was determined as 1.6 µM. The solubility entry in series [15] was “Soluble”. In addition, the microsomal CLint at 1 µM in [16] is 60 µL/min/mg; in series [19] it was less than 4 µL/min/mg.
